Like-named read-outs stand apart in the source and are kept apart here. Marks after values point to notes of the source that are not given here.
Columns and labels:
CYP3A4 [1] = target: T1, CYP3A4 (Homo sapiens, UniProt P08684); type: in vivo; conditions: for Clf: formation clearance; for CL renal / Cmax / half-life: both; for CL renal: urine and plasma; for Cp: endogenous, 6 hr plasma; for Cmax / half-life: plasma; for Cmax: observed Cmax; for half-life: probe midazolam
[2] = cited from earlier work
CYP3A4 [3] = target: T1, CYP3A4; conditions: parameter used for simulations; ref SimCYP compound library; cited from earlier work
[4] = Drug specific pharmacokinetic parameters used for simulations; type: in vivo, human
[5] = cited from earlier work; for CLIV: after 1mg IV dosing in CYP3A5 nonexpressors
CYP2D6 [6] = target: T2, CYP2D6 (Homo sapiens, UniProt P10635); assay: Clinical cocktail DDI study with fluoxetine, dextromethorphan probe; type: in vivo; conditions: for Cmax / half-life / AUC(0-inf): both, human, plasma; for AUC(0-inf): probe dextromethorphan
T2 sequence (P10635 whole entry): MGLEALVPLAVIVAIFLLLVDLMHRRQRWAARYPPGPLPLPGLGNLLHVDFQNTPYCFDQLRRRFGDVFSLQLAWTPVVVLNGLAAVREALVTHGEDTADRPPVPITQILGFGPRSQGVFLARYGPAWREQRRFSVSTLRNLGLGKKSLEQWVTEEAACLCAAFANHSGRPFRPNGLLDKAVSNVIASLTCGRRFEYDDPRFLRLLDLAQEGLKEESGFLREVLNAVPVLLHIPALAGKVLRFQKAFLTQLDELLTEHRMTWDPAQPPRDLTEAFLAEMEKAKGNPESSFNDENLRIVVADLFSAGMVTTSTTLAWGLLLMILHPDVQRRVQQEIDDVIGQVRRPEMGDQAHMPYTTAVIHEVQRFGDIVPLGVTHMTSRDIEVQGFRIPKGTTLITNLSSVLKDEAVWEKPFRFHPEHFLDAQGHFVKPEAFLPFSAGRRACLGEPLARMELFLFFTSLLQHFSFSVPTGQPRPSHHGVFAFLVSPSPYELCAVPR

[7] = parameter used for simulations; ref SimCYP compound library; cited from earlier work
CYP2D6 [8] = target: T2, CYP2D6; assay: Reversible CYP2D6 inhibition; type: biochemical
CYP3A4 mRNA = CYP3A4 mRNA induction in cryopreserved human hepatocytes; type: cell-based
CYP2D6 [9] = target: T2, CYP2D6; assay: Static DDI risk prediction, unbound [I]/Ki
CYP3A4 [10] = target: T1, CYP3A4; conditions: multiple dose fluoxetine; cited from earlier work
CYP2D6 [11] = target: T2, CYP2D6; conditions: desipramine with fluoxetine; cited from earlier work
CYP2C19 = CYP2C19 (Homo sapiens, UniProt P33261); conditions: lansoprazole with fluoxetine; cited from earlier work
CYP2C19, sequence (P33261 whole entry): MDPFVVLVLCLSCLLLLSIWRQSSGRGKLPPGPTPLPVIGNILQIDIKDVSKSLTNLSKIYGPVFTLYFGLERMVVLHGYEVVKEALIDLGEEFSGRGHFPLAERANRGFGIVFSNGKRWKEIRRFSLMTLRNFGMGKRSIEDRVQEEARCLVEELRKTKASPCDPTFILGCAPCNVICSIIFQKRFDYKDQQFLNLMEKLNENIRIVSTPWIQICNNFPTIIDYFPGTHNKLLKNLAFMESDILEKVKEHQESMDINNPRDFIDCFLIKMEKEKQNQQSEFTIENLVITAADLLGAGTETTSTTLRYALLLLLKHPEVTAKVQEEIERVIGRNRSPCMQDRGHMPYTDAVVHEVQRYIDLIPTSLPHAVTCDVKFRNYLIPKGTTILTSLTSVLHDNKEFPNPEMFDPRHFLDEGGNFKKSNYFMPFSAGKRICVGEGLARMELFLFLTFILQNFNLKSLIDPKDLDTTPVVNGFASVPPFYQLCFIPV

[12] = parameter used for simulations, ref SimCYP compound library
[13] = estimated to achieve desired distribution kinetics

T1 sequence (P08684 whole entry): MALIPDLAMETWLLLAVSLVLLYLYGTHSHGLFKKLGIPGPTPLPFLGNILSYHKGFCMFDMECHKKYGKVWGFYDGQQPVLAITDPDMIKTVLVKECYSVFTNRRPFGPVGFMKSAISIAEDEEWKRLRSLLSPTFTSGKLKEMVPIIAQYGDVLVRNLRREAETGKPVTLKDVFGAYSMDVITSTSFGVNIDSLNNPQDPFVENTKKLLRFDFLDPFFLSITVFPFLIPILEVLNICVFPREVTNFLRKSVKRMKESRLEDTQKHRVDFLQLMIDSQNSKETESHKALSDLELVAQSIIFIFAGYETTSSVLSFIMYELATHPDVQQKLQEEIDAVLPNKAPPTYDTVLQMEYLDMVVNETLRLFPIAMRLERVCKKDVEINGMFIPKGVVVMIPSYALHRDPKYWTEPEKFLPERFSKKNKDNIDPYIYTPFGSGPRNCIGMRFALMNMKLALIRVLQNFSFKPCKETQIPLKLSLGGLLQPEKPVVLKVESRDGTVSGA

C[C@]12CCC(=O)C=C1[C@H](O)C[C@@H]1[C@@H]2[C@@H](O)C[C@@]2(C)[C@H]1CC[C@]2(O)C(=O)CO [6β-hydroxycortisol]
Clr (CYP3A4 [1]; Control): 4.2 (0.85–30) L/hr
Um/Up (CYP3A4 [1]; Control): 1.1 (0.25–5.8)
Um/Up (CYP3A4 [1]; Treatment): 0.79 (0.17–3.0)
Clf (CYP3A4 [1]; Control): 40 (5.8–340) mL/hr
Clf (CYP3A4 [1]; Treatment): 28 (6.8–130) mL/hr
Clf Treatment/Control (CYP3A4 [1]; human, in vivo): 0.7
effect of fluoxetine on endogenous measures of hepatic CYP3A4 activity (CYP3A4 [1]; human, in vivo): no effect
effect of fluoxetine on CLr (CYP3A4 [1]; p>0.05): no effect

COc1ccc2c(c1)[C@]13CCCC[C@@H]1[C@H](C2)N(C)CC3 [Dextromethorphan]
B/P [2, 12]: 1.32
fu [2, 12]: 0.5
fm CYP3A4 (CYP3A4 [3]): 0.018
ka ([4]; estimated in order to reflect observed Cmax and tmax): 0.6 ^* hr^−1
Vsac [4, 13]: 1 L/kg
Vsac Q [4, 13]: 15 L/h
CLpo ([4]; set to reflect the half-life in genotyped CYP2D6 extensive metabolizers): 1405 ^h L/hr
CLr [5, 12]: 0.375 L/h
fa [5, 12]: 1
fg [5, 12]: 1
Vss ([5]; used previously): 14.45 ^f L/kg
decrease in oral CL (CYP2D6 [6]; after 12 days of fluoxetine): 99%
increase in AUC0-∞ compared to control (CYP2D6 [6]; after fluoxetine dosing): 27 fold
Cmax (CYP2D6 [6]; oral): 74 ± 31 nM
Cmax (CYP2D6 [6]; oral, 30 mg): 8.7 ± 11.4 nM
half-life (CYP2D6 [6]; oral, t1/2, Control): 5 ± 1 h
half-life (CYP2D6 [6]; oral, t1/2, Treatment, day 12 of fluoxetine): 21 ± 6 h
AUC(0-inf) (CYP2D6 [6]; po, 30 mg): 0.068 ± 0.1 µM·h

NCC[C@H](Oc1ccc(C(F)(F)F)cc1)c1ccccc1 [(S)-norfluoxetine]
fu [2, 12]: 0.13
LogP [7]: 3.8
pKa 1 [7]: 9
Ki (CYP2D6 [8]): 35 nM
Imax, CYP3A4 mRNA induction (CYP3A4 mRNA; hepatocytes from three donors): 2.6 fold
EC50 at 48 h (CYP3A4 mRNA; human, cryopreserved human hepatocytes): 3900 nM
CYP3A4 Emax (CYP3A4 mRNA; mRNA induction, not scaled to Rifampin): 2.6
CLIV ([4]; estimated to reflect the reported t1/2 following a single oral dose): 5.8 L/h
predicted share of the in vivo CYP2D6 inhibition (CYP2D6 [9]): ~40%

CN1CC[C@@]23CCCC[C@@H]2[C@@H]1Cc1ccc(O)cc13 [Dextrorphan]
decrease in dextrorphan/dextromethorphan Um/Up (CYP2D6 [6]; after fluoxetine): 99%
decrease in plasma dextrorphan/dextromethorphan AUCm/AUCp (CYP2D6 [6]; after fluoxetine): 98%
change in AUC0-∞ (CYP2D6 [6]; after fluoxetine, P>0.05): unchanged
AUC(0-inf) (CYP2D6 [6]; oral): 0.028 ± 0.017 µM·h
AUC(0-inf) (CYP2D6 [6]; po, 30 mg): 0.029 ± 0.018 µM·h

Cc1nnc2n1-c1ccc(Cl)cc1C(c1ccccc1)=NC2 [alprazolam]
increase in AUC (CYP3A4 [10]): 1.3 fold

C[C@]12CCC(=O)C=C1CC[C@@H]1[C@@H]2[C@@H](O)C[C@@]2(C)[C@H]1CC[C@]2(O)C(=O)CO [Cortisol]
CL renal (CYP3A4 [1]; human): 0.6 mL/min
CL renal (CYP3A4 [1]; human, oral): 0.583 mL/min
Cp (CYP3A4 [1]; Control day 3): 140 ± 60 nM
Cp (CYP3A4 [1]; Treatment day 14): 160 ± 80 nM
effect of fluoxetine on CLr (CYP3A4 [1]; p>0.05): no effect

CNCCCN1c2ccccc2CCc2ccccc21 [desipramine]
increase in AUC (CYP2D6 [11]): 7.8 fold

Cc1c(OCC(F)(F)F)ccnc1C[S+]([O-])c1nc2ccccc2[nH]1 (stereo not shown) [lansoprazole]
increase in AUC (CYP2C19): 2.9 fold

Cc1ncc2n1-c1ccc(Cl)cc1C(c1ccccc1F)=NC2 [Midazolam]
B/P ([2]; previously reported): 0.86 ^i
pKa 1 [7]: 10.95
effect on AUC (CYP3A4 [10]): no effect
fm CYP3A4 (CYP3A4 [3]): 0.94
Cmax (CYP3A4 [1]; human, oral, 2 mg, control day): 17 ± 16 nM
half-life (CYP3A4 [1]; human, oral, 2 mg): 2.2 h
Cmax (CYP3A4 [1]; human, oral, day 12 of fluoxetine): 14.5 ± 10 nM
half-life (CYP3A4 [1]; human, oral): 2.3 h
change in AUC0-∞, oral CL and t1/2 (CYP3A4 [1]; following 12 days of fluoxetine, p>0.05): unchanged
effect on AUC (CYP3A4 [1]; two week dosing of fluoxetine): unaffected
Vsac [4, 13]: 0.75 L/kg
kin [4, 13]: 11 h⁻¹
kout [4, 13]: 7.5 h⁻¹
CLIV [5]: 33 ^k L/hr
CLIV ([5]; listed as midazolam): 33 L/h
Vss ([5]; after IV dosing in CYP3A5 nonexpressors): 1.27 ^k L/kg
fa [5, 12]: 0.88
fg [5, 12]: 1
ka ([5]; previously estimated): 2.5 ^j hr^−1

— publication PMC4029899 (Clinical pharmacology and therapeutics, 2014)
